Laboratory results taken from patent publication US20090221095A1, “Colorimetric Screening of DNA Binding/Intercalating Agents with Gold Nanoparticle Probes” (NORTHWESTERN UNIVERSITY, priority 2005, published 2009).

How the values were obtained:
[1] = system: triplex DNA (DNA-1, DNA-2, DNA-3); assay: UV melting (260 nm) of unmodified triplex DNA-1, DNA-2, DNA-3 (no nanoparticles); type: binding; conditions: solution-phase unmodified DNA, 1 μM each strand, 6 μM binder, 0.5 M NaCl 10 mM PBS
Protocol: To compare the results from the previous examples with more traditional screening techniques, all eight intercalators were screened, plus a control, by monitoring UV absorbance melting curves (260 nm) of unmodified DNA-1, DNA-2, and DNA-3 (1 μM each), with each intercalator (10 μM), (DNA-1; 3′ TTCTTCTTTTTT CT-5′. DNA-2: 5′-TTCTTCTTTTTTCT-3′, DNA-3: 5′-AAGAAGAAAAAA-3′). (FIG. 2B). The melting experiment performed in the presence of BePl has two melting transitions. The first Tm at 34.8° C. is associated with the denaturation of the triplex structure and the second Tm at 61.4° C. is representative of the corresponding duplex.
To determine the Tm of the duplex DNA in the presence of DNA binders, 2 μM duplex DNA and 5 μM DNA binder were combined in 0.3 M NaCl 10 mM PBS. To determine the Tm of the triplex DNA in the presence of DNA binders, 1 μM of each strand and 6 μM of each DNA binder were combined in 0.5 M NaCl 10 mM PBS. UV-vis melting curves were measured on a CARRY 500 spectrophotometer equipped with a circulating bath. The melting process was monitored by measuring the change in extinction at 260 nm. The solutions were stirred continuously with a magnetic stir bar as the solution temperature was increased at a rate of 0.5° C./min. The first derivative generated from the melting curves was used to determine the Tm.
A melting transition associated with the triple helix was found only for experiments performed in the presence of BePI (34.8° C.) and CORA (17.1° C.) where BePI is determined to be the stronger binder. This is in agreement with the results determined by the chip-based scanometric method described above.

[2] = system: triplex DNA on chip surface; assay: Chip-based scanometric detection of triplex DNA binders (silver enhancement); type: binding; conditions: 0.3 M NaCl, binder 5 μM, DNA-3 150 nM
Protocol: For scanometric detection of duplex or triplex DNA binding molecules, Au nanoparticles (1 nM) and DNA binding molecules (5 μM) in 10 mM PBS buffer of varying NaCl concentrations were added to the microarray slide under hybridization wells (Nanosphere, Inc.). For detection of triplex binders, 150 nM DNA-3 was added. DNA hybridization proceeded for 30 min (for duplex DNA binders) or 1 h (for triplex DNA binders) in a humidity chamber. After hybridization, the slides were washed three times with 0.5 M NaNO3 containing 0.02% Tween 20. The arrays were dried using a benchtop spinner. Silver enhancement solution (Nanosphere, Inc.) was added for Au-NP signal amplification (1 mL total volume/array, 1.5-min development time for duplex DNA binding molecules and 3 min for triplex binding molecules). The reaction was terminated by washing the slides with NANOpure® water and spin-drying. Light-scattering images from the silver-enhanced chips were recorded using the high-resolution Verigene ID system (Nanosphere, Inc.).
Capture strands of synthetic oligonucleotides are patterned on a glass chip using a microarrayer. The DNA chip is then exposed to a solution containing three components: 1) complementary DNA (no nanoparticles), 2) DNA functionalized Au nanoparticles (DNA is non-complementary to the arrayed DNA) and 3) DNA binders, Scheme 4. The complementary solution-phase DNA, called DNA-3 in Scheme 2, hybridizes to the DNA on the chip surface and forms a duplex. The Au nanoparticle-bound DNA has the correct sequence to form a triplex with the surface bound duplex through sequence-specific Hoogsteen, or reverse Hoogsteen, base pairing. The triplex structure is relatively unstable at room temperature and will only form in the presence of triplex DNA binding molecules. The presence of the triplex DNA binding molecules increase the stability of the triplex, immobilizing the Au nanoparticles on the chip surface. The chip was then exposed to silver enhancement solution for further signal enhancement and then imaged using a Verigene ID scanner.
The assay was performed in the presence of two triplex binders, coralyn (CORA) and benzo[e]pyridoindole (BePI), seven duplex DNA binders, 4′,6-diamidino-2-phenylindole (DAPI), ellipticine (EIPT), amsacrine (AMSA), daunorubicin (DNR), anthraquinone-2-carboxylic acid (AQ2A), ethidium bromide (EB), and 9-aminoacridine (9-AA))., and one control (no DNA-3). Similar to the DNA duplex, the formation of the DNA triplex is a reversible process which is affected by both temperature and salt concentration. However, compared to the duplex, the stability of the triplex is much more sensitive to salt concentration. Therefore, to determine the relative binding strength of the triplex DNA binders, the assay was performed at varying salt concentrations, FIG. 7. At 0.3 M NaCl, both the strong (BePI) and weaker (CORA) triplex binders show signal.

COc1cc2cc3c4cc(OC)c(OC)cc4cc[n+]3c(C)c2cc1OC [CORA, coralyn]
Tm 2-1 ([1]; duplex melting transition): 60.1 °C
Tm3-2 ([1]; triple helix melting transition, ND read as not detected): 17.1 °C
scanometric signal [2]: show signal
